Results on nine compounds are retold here after paper PMC7464911, “Isolation of Antidiabetic Withanolides from Withania coagulans Dunal and Their In Vitro and In Silico Validation” (Biology, 2020).

For data set [1], the system named is Sprague-Dawley normoglycemic rat model. More on the design: method as in PMID 24566854. The note with it: cited from earlier work.
Data set [2] addresses T1, α-glucosidase (Saccharomyces cerevisiae, UniProt P53341). The note with it: for α-Glucosidase Inhibition IC50 (µM) ± (SEM): pH 6.8, 37 °C, PNP-G 0.7 mM, mean ± SEM, triplicate.
Experimental: (§1) α-Glucosidase inhibitory potential of test compounds was assayed by using 0.1 M phosphate buffer (pH 6.8) at 37 °C. The enzyme (0.2 U/mL) in phosphate buffer was incubated with selected concentrations of test compounds at 37 °C for 15 min. The substrate, p-nitrophenyl-α-D-glucopyranoside (PNP-G) (0.7 mM) was added in each well of 96-well plate and change in absorbance was monitored at 400 nm for 30 min. […] The increase in absorption due to the hydrolysis of PNP-G by α-glucosidase was recorded continuously with the spectrophotometer (Spectra Max, MD, USA.) and percent inhibition was calculated by using the following formula: % Inhibition = 100−⦋OD of test sample/OD of the control×100⦌
(§2) The experiments were performed by using 96-well microplate reader (SpectraMax M2, Molecular Devices, CA, USA) and the results were analyzed by SoftMaxPro 4.8 and MS-Excel. The experiments were repeated in triplicate, and results were presented as means ± SEM. IC50 values were determined by using EZ-FIT, Enzyme kinetics software by Perrella Scientific, Inc., Amherst, MA, USA.
The subject of data set [3] is AGE formation (bovine serum albumin, methylglyoxal). Put plainly: In vitro antiglycation assay (BSA-methylglyoxal, AGE fluorescence). Format: biochemical. The protocol:
Methylglyoxal (14 mM), sodium azide (30 mM) in 0.1 M phosphate buffer, bovine serum albumin (10 mg/mL), and various concentrations of the compounds (prepared in 10% DMSO) were incubated under sterile conditions at 37 °C for 9 days. […] Standard rutin was used as a positive control and percent inhibition of AGE formation in the test sample versus control was calculated by using the following relation: % Inhibition = ⦋1−Fluorescence of test sample/Fluorescence of the control⦌×100

The target in data set [4] is T1, α-glucosidase. The data set is described as follows: biochemical.
Experimental: as §1, §2

“Also recorded” adds a separate entry of the source. Where two headings read alike, the source gives them in different places.

T1 sequence (P53341 whole entry): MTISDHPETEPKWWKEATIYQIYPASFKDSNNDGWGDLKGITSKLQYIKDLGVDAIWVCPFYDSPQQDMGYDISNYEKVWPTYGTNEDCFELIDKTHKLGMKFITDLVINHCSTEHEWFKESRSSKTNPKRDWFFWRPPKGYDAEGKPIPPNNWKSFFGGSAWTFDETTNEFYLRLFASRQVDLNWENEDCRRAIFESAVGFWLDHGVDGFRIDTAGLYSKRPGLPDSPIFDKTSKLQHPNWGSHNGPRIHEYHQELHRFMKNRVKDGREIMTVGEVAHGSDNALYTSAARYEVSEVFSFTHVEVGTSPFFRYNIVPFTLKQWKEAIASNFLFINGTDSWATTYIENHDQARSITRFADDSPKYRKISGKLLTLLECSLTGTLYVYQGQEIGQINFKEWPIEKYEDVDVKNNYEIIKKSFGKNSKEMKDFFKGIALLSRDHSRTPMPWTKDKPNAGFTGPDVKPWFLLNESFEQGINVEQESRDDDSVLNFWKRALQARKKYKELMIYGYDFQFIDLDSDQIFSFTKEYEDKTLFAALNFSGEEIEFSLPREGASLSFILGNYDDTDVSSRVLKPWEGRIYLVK

On to 17β-hydroxywithanolide K, for which, in data set [1], the anti-inflammatory activity result was “potent” and the antihyperglycemic activity entry is on record as “potent”.
In the case of `CC1=C(C)C(=O)O[C@@H]([C@](C)(O)[C@]2(O)CC[C@@]3(O)[C@@H]4C[C@H]5O[C@]56[C@@H](O)C=CC(=O)[C@]6(C)[C@H]4CC[C@]23C)C1` [4β-hydroxywithanolide E], in data set [1], the anti-inflammatory activity result was “potent” and the antihyperglycemic activity entry is on record as “potent”.
Regarding `CC1=C(COC2OC(CO)C(O)C(O)C2O)C(=O)OC(C2(C)OC34CCC2C3(C)CCC2C4CC=C3CC(O)CC(=O)C32C)C1` (stereo not drawn) [Compound 1, 3β-Hydroxy-14R,20R-epoxy-1-oxowitha-5,24-dienolide-27-O-β-D glucopyranoside], at α-glucosidase [2], the “α-glucosidase inhibitory activity (in words)” value is “did not possess α-glucosidase inhibitory activity; also recorded: inactive” and the “α-Glucosidase Inhibition IC50 (µM) ± (SEM)” value is “Inactive”. Moreover, the “Antiglycation IC50 (µM) ± (SEM)” value in data set [3] is “Inactive”.
`CC1=C(C)C(=O)O[C@@H]([C@@](C)(O)[C@@]2(O)CC[C@@]3(O)[C@@H]4CC=C5CC=CC(=O)[C@]5(C)[C@H]4CC[C@]23C)C1` [Compound 2, withanolid J]: the “Antiglycation IC50 (µM) ± (SEM)” value in data set [3] (37 °C, 9 days, mean ± SEM) is “Inactive”. On α-glucosidase [4], it took 683 ± 0.94 µM to reach half-maximal inhibition (IC50).
In the case of `CC1=C(C)C(=O)O[C@@H]([C@@]2(C)O[C@@]34CC[C@@H]2[C@@]3(C)CC[C@H]2[C@H]4CC=C3C=CCC(=O)[C@@]32C)C1` [Compound 3, coagulin E], on α-glucosidase [2], the “α-glucosidase inhibitory activity (in words)” value is recorded as “did not possess α-glucosidase inhibitory activity” and the “α-Glucosidase Inhibition IC50 (µM) ± (SEM)” value is reported as “Inactive”. Moreover, the “Antiglycation IC50 (µM) ± (SEM)” value in data set [3] (37 °C, 9 days, mean ± SEM) is on record as “Inactive”.
With `CC1=C(C)C(=O)O[C@@H]([C@@](C)(O)[C@@]2(O)CC[C@@]3(O)[C@@H]4CCC5=CC=CC(=O)[C@]5(C)[C@H]4CC[C@]23C)C1` [Compound 4, withaperuvin C], the “Antiglycation IC50 (µM) ± (SEM)” value in data set [3] (37 °C, 9 days, mean ± SEM) is recorded as “Inactive”. Moreover, the midpoint of inhibition at α-glucosidase [4], the IC50, lay at 407 ± 4.5 µM.
The corresponding values for `CC1=C(CO)C(=O)O[C@@H]([C@@](C)(O)[C@H]2CC[C@@]3(O)[C@@H]4CC=C5C=CCC(=O)[C@]5(C)[C@H]4CC[C@]23C)C1` [Compound 5, 27-hydroxywithanolide I] are “Inactive” and 66.7 ± 3.6 µM.
Consider `CC1=C(CO)C(=O)O[C@@H]([C@@](C)(O)[C@@]2(O)CC[C@@]3(O)[C@@H]4CC=C5C=CCC(=O)[C@]5(C)[C@H]4CC[C@]23C)C1` [Compound 6, ajugin E], for which, at α-glucosidase [2], the “α-glucosidase inhibitory activity (in words)” value was “did not possess α-glucosidase inhibitory activity” and the “α-Glucosidase Inhibition IC50 (µM) ± (SEM)” value is given as “Inactive”. For the same compound, the “Antiglycation IC50 (µM) ± (SEM)” value in data set [3] is given as “Inactive”.
As to `C[C@@H]1O[C@@H](OC[C@H]2O[C@@H](Oc3c(-c4ccc(O)c(O)c4)oc4cc(O)cc(O)c4c3=O)[C@H](O)[C@@H](O)[C@@H]2O)[C@H](O)[C@H](O)[C@H]1O` [Rutin, rutin, reference compound], in data set [3] (37 °C, 9 days, mean ± SEM), inhibition was half-maximal at 288.9 ± 1.84 µM (IC50).
